IC50 data for 1 compound are collected here from patent US8017611B2, “Pyridine and pyrazine derivatives -083” (AstraZeneca AB, priority 2007, dated 2011).

In this experiment the target is T1, cMet expressed on MKN45 cells (Homo sapiens, UniProt P08581).
T1 construct: endogenous in cells; host or cells: MKN45
Kind of experiment: Cellular c-Met inhibition assay, Test (d). Format: cell-based. An excerpt: These and other assays can be used to indicate the ability of a test compound to inhibit c-Met mediated cellular signalling in mammalian cell lines, for example the human tumour cell line MKN45. This is achieved by measuring the amount of phosphorylated c-Met within a cell following compound treatment.
MKN45 cells were routinely passaged in DMEM (Gibco BRL, product number 41966-029) plus 10% foetal calf serum (FCS), 1% L-glutamine (Gibco BRL, product number 25030024), to a confluence not greater than 85%. To undertake the assay, MKN45 cells were seeded at 2×10^4 cells/well in DMEM plus 0.5% foetal calf serum, 1% L-glutamine in 96 well plates (Costar, product number 3904) and incubated at 37° C. (+5% CO2) in a humidified incubator. Once the cells had fully adhered (typically following overnight incubation) plates were dosed with 25 μl compound (diluted from 10 mM stock in DMSO using serum free DMEM) and the plates were returned to a humidified 37° C. (+5% CO2) incubator for one hour. Following incubation the cells were fixed by adding formaldehyde (4% final concentration) and incubating at room temperature for 20 minutes. […] The plates were read using an Arrayscan II (Cellomics). […]

Read-outs that look alike come from different tables or passages of the source.

T1 sequence (P08581 25-1390): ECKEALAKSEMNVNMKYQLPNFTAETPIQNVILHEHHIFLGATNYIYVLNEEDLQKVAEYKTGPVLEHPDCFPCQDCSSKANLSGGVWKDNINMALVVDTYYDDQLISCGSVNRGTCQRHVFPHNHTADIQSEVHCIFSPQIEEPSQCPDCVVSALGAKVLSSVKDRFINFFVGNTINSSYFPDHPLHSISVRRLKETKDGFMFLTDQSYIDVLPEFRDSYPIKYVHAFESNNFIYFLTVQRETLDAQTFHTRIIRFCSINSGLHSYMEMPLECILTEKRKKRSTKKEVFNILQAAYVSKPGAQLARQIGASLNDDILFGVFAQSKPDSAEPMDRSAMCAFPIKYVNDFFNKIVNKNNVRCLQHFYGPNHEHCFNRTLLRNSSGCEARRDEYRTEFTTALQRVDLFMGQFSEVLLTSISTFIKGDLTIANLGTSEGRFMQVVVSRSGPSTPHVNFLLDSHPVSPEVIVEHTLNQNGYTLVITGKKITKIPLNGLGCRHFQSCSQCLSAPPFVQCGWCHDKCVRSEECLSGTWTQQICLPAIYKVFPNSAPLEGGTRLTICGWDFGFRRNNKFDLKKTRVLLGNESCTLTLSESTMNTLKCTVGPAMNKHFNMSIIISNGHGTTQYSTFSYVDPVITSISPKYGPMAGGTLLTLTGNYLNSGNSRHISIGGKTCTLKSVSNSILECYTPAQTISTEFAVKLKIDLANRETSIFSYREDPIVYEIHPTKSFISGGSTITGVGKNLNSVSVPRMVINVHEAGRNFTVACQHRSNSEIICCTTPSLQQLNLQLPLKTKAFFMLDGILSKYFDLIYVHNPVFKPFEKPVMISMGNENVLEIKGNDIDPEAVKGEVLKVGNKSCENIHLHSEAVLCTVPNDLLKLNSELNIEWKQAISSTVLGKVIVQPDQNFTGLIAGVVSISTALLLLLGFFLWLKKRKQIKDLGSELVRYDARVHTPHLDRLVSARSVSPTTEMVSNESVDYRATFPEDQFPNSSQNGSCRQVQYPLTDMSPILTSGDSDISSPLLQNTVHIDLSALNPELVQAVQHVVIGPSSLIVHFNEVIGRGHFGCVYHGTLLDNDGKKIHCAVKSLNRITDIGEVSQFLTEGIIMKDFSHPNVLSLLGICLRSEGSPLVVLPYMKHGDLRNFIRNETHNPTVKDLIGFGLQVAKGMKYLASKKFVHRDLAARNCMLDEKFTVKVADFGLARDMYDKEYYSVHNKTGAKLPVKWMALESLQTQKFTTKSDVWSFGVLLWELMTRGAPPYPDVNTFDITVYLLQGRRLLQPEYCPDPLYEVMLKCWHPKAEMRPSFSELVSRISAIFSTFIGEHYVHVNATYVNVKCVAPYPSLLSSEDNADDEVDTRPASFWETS

Take `CN1CCC(n2cc(-c3cnc(N)c(-c4nc5ccc(F)cc5o4)c3)cn2)CC1` [Example 7.2]: the IC50 is approximately 590 nM (MKN45 cells, read-out: IC50 versus cellular phospho-c-Met (pYpYpY1230/4/5)) and 950 nM (later recalculated, read-out: IC50 versus cellular phospho-c-Met (pYpYpY1230/4/5), mean recalculated from a larger number of replicates).
